In patent US10736932B2, “Small molecule Ras inhibitors” (Ohio State Innovation Foundation, priority 2014, dated 2020):
Square brackets hold non-standard residues; d marks the D form. Side chains are listed from the residue outwards. Peptide text beside a SMILES is read from it. * marks the point of attachment. Phe(3,4-F2) = N[C@@H](Cc1ccc(F)c(F)c1)C(=O)O; Phe(4-Cl) = N[C@@H](Cc1ccc(Cl)cc1)C(=O)O; Phe(4-F) = N[C@@H](Cc1ccc(F)cc1)C(=O)O; 2Nal = N[C@@H](Cc1ccc2ccccc2c1)C(=O)O; d2Nal = N[C@H](Cc1ccc2ccccc2c1)C(=O)O; Tle = CC(C)(C)[C@H](N)C(=O)O; X5 = O=C(c1cc(F)cc(Br)c1)*; dNle = CCCC[C@@H](N)C(=O)O; Dap = NC[C@H](N)C(=O)O

Target: T1, K-Ras / Raf RBD interaction (Homo sapiens, UniProt P01116, G12V)
T1 construct: The G12V mutant K-Ras (amino acids 1-185) was recombinantly fused; GST (N, cleaved yes); made in house; host or cells: Escherichia coli BL21
Test: HTRF assay, inhibition of Ras-Raf RBD interaction;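 further: HTRF signal read after overnight incubation of the assay plate at 4 °C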
Format: binding

SMILES | IC50 [µM] | increase in Ras binding affinity upon residue substitution (relative to parent 9A5/9A6) [fold]
CCCC[C@H]1NC(=O)[C@H](Cc2ccc(F)cc2)NC(=O)[C@H](CCCNC(=N)N)NC(=O)[C@@H](Cc2ccc3ccccc3c2)NC(=O)[C@H](CCCNC(=N)N)NC(=O)[C@H](CCCNC(=N)N)NC(=O)[C@@H](CCCNC(=N)N)NC(=O)[C@@H](C(C)C)NC(=O)[C@H](C(C)(C)C)NC(=O)[C@H](Cc2c[nH]c3ccccc23)NC(=O)[C@H](CCC(N)=O)NC1=O [Cyclorasin 9A53, (Trp-Tle-val-arg-Arg-Arg-nal-Arg-Fpa-nle-Gln)] (cyclo(W[Tle][dV][dR]RR[d2Nal]R[Phe(4-F)][dNle]Q)) | 0.027 ± 0.011 | –
CCCC[C@H]1NC(=O)[C@H](Cc2ccc(F)cc2)NC(=O)[C@H](CCCNC(=N)N)NC(=O)[C@@H](Cc2ccc3ccccc3c2)NC(=O)[C@H](CCCNC(=N)N)NC(=O)[C@H](CCCNC(=N)N)NC(=O)[C@@H](CCCNC(=N)N)NC(=O)[C@@H](CC(C)C)NC(=O)[C@H]([C@@H](C)O)NC(=O)[C@H](Cc2c[nH]c3ccccc23)NC(=O)[C@H](CCC(N)=O)NC1=O [Cyclorasin 9A15, (Trp-Thr-leu-arg-Arg-Arg-nal-Arg-Fpa-nle-Gln)] (cyclo(WT[dL][dR]RR[d2Nal]R[Phe(4-F)][dNle]Q)) | 0.11 ± 0.04 | –
CCCC[C@H]1NC(=O)[C@H](Cc2ccc(F)cc2)NC(=O)[C@H](CCCNC(=N)N)NC(=O)[C@@H](Cc2ccc3ccccc3c2)NC(=O)[C@H](CCCNC(=N)N)NC(=O)[C@H](CCCNC(=N)N)NC(=O)[C@H](CCCNC(=N)N)NC(=O)[C@@H](C(C)C)NC(=O)[C@H](C(C)(C)C)NC(=O)[C@H](Cc2c[nH]c3ccccc23)NC(=O)[C@H](CCC(N)=O)NC1=O [Cyclorasin 9A48, (Trp-Tle-val-Arg-Arg-Arg-nal-Arg-Fpa-nle-Gln)] (cyclo(W[Tle][dV]RRR[d2Nal]R[Phe(4-F)][dNle]Q)) | 0.048 ± 0.003 | –
CCCC[C@H]1NC(=O)[C@H](Cc2ccc(F)cc2)NC(=O)[C@H](CCCNC(=N)N)NC(=O)[C@@H](Cc2ccc3ccccc3c2)NC(=O)[C@H](CCCNC(=N)N)NC(=O)[C@H](CCCNC(=N)N)NC(=O)[C@H](CCCNC(=N)N)NC(=O)[C@@H](C)NC(=O)[C@H]([C@@H](C)O)NC(=O)[C@H](Cc2ccc3ccccc3c2)NC(=O)[C@H](CCC(N)=O)NC1=O [Cyclorasin 9A49, (Nal-Thr-ala-Arg-Arg-Arg-nal-Arg-Fpa-nle-Gln)] (cyclo([2Nal]T[dA]RRR[d2Nal]R[Phe(4-F)][dNle]Q)) | 0.1 ± 0.01 | –
CCCC[C@H]1NC(=O)[C@H](CNC(=O)c2cc(F)cc(Br)c2)NC(=O)[C@H](CCCNC(=N)N)NC(=O)[C@@H](Cc2ccc3ccccc3c2)NC(=O)[C@H](CCCNC(=N)N)NC(=O)[C@H](CCCNC(=N)N)NC(=O)[C@H](CCCNC(=N)N)NC(=O)[C@@H](C)NC(=O)[C@H]([C@@H](C)O)NC(=O)[C@H](Cc2c[nH]c3ccccc23)NC(=O)[C@H](CCC(N)=O)NC1=O [Cyclorasin 9A44a, (Trp-Thr-ala-Arg-Arg-Arg-nal-Arg-Dap(3-bromo-5-fluorobenzoyl)-nle-Gln)] (cyclo(WT[dA]RRR[d2Nal]R[Dap](X5)[dNle]Q)) | 0.083 ± 0.008 | –
CCCC[C@H]1NC(=O)[C@H](Cc2ccc(F)cc2)NC(=O)[C@H](CCCNC(=N)N)NC(=O)[C@@H](Cc2ccc3ccccc3c2)NC(=O)[C@H](CCCNC(=N)N)NC(=O)[C@H](CCCNC(=N)N)NC(=O)[C@H](CCCNC(=N)N)NC(=O)[C@@H](CC(C)C)NC(=O)[C@H](C(C)(C)C)NC(=O)[C@H](Cc2c[nH]c3ccccc23)NC(=O)[C@H](CCC(N)=O)NC1=O [Cyclorasin 9A41, (Trp-Tle-leu-Arg-Arg-Arg-nal-Arg-Fpa-nle-Gln)] (cyclo(W[Tle][dL]RRR[d2Nal]R[Phe(4-F)][dNle]Q)) | 2 ± 0.9 | –
CCCC[C@H]1NC(=O)[C@H](Cc2ccc(F)cc2)NC(=O)[C@H](CCCNC(=N)N)NC(=O)[C@@H](Cc2ccc3ccccc3c2)NC(=O)[C@H](CCCNC(=N)N)NC(=O)[C@H](CCCNC(=N)N)NC(=O)[C@H](CCCNC(=N)N)NC(=O)[C@@H](C(C)C)NC(=O)[C@H]([C@@H](C)O)NC(=O)[C@H](Cc2c[nH]c3ccccc23)NC(=O)[C@H](CCC(N)=O)NC1=O [Cyclorasin 9A47, (Trp-Thr-val-Arg-Arg-Arg-nal-Arg-Fpa-nle-Gln)] (cyclo(WT[dV]RRR[d2Nal]R[Phe(4-F)][dNle]Q)) | 0.086 ± 0.011 | –
CCCC[C@H]1NC(=O)[C@H](Cc2ccc(F)cc2)NC(=O)[C@H](CCCNC(=N)N)NC(=O)[C@@H](Cc2ccc3ccccc3c2)NC(=O)[C@H](C)NC(=O)[C@H](CCCNC(=N)N)NC(=O)[C@H](CCC(=O)N[C@@H](CCCCN)C(N)=O)NC(=O)[C@@H](C)NC(=O)[C@H]([C@@H](C)O)NC(=O)[C@H](Cc2c[nH]c3ccccc23)NC(=O)[C@@H](CO)NC1=O [Cyclorasin 9A(Arg2A), (Arg-Ala-nal-Arg-Fpa-nle-ser-Trp-Thr-ala-Gln)-Lys] (cyclo(RA[d2Nal]R[Phe(4-F)][dNle][dS]WT[dA]E([Lys-NH2]))) | 0.94 ± 0.29 | –
CCCC[C@H]1NC(=O)[C@H](Cc2ccc(F)cc2)NC(=O)[C@H](CCCNC(=N)N)NC(=O)[C@@H](Cc2ccc3ccccc3c2)NC(=O)[C@H](CCCNC(=N)N)NC(=O)[C@H](CCCNC(=N)N)NC(=O)[C@H](CCC(=O)N[C@@H](CCCCN)C(N)=O)NC(=O)[C@@H](C)NC(=O)[C@H]([C@@H](C)O)NC(=O)[C@H](Cc2c[nH]c3ccccc23)NC(=O)[C@@H](C)NC1=O [Cyclorasin 9A(ser7dA), (Arg-Arg-nal-Arg-Fpa-nle-ala-Trp-Thr-ala-Gln)-Lys] (cyclo(RR[d2Nal]R[Phe(4-F)][dNle][dA]WT[dA]E([Lys-NH2]))) | 0.77 ± 0.49 | –
CCCC[C@H]1NC(=O)[C@H](Cc2ccc(F)cc2)NC(=O)[C@H](CCCNC(=N)N)NC(=O)[C@@H](Cc2ccc3ccccc3c2)NC(=O)[C@H](CCCNC(=N)N)NC(=O)[C@H](CCCNC(=N)N)NC(=O)[C@@H](CCCNC(=N)N)NC(=O)[C@@H](C)NC(=O)[C@H](CO)NC(=O)[C@H](Cc2c[nH]c3ccccc23)NC(=O)[C@H](CCC(N)=O)NC1=O [Cyclorasin 9A17, (Trp-Ser-ala-arg-Arg-Arg-nal-Arg-Fpa-nle-Gln)] (cyclo(WS[dA][dR]RR[d2Nal]R[Phe(4-F)][dNle]Q)) | 0.72 ± 0.31 | –
CCCC[C@H]1NC(=O)[C@H](Cc2ccc(F)cc2)NC(=O)[C@H](CCCNC(=N)N)NC(=O)[C@H](Cc2ccc3ccccc3c2)NC(=O)[C@H](CCCNC(=N)N)NC(=O)[C@H](CCCNC(=N)N)NC(=O)[C@H](CCCNC(=N)N)NC(=O)[C@@H](C)NC(=O)[C@H]([C@@H](C)O)NC(=O)[C@H](Cc2c[nH]c3ccccc23)NC(=O)[C@H](CCC(N)=O)NC1=O [Cyclorasin 9A55, (Trp-Thr-ala-Arg-Arg-Arg-Nal-Arg-Fpa-nle-Gln)] (cyclo(WT[dA]RRR[2Nal]R[Phe(4-F)][dNle]Q)) | 0.94 ± 0.28 | –
CCCC[C@H]1NC(=O)[C@H](Cc2ccc(F)cc2)NC(=O)[C@H](CCCNC(=N)N)NC(=O)[C@@H](Cc2ccc3ccccc3c2)NC(=O)[C@H](CCCNC(=N)N)NC(=O)[C@H](CCCNC(=N)N)NC(=O)[C@@H](CCCNC(=N)N)NC(=O)[C@@H](C)NC(=O)[C@H](C(C)(C)C)NC(=O)[C@H](Cc2c[nH]c3ccccc23)NC(=O)[C@H](CCC(N)=O)NC1=O [Cyclorasin 9A16, (Trp-Tle-ala-arg-Arg-Arg-nal-Arg-Fpa-nle-Gln)] (cyclo(W[Tle][dA][dR]RR[d2Nal]R[Phe(4-F)][dNle]Q)) | 0.11 ± 0.01 | ~2
CCCC[C@H]1NC(=O)[C@H](Cc2ccc(F)cc2)NC(=O)[C@H](CCCNC(=N)N)NC(=O)[C@@H](Cc2ccc3ccccc3c2)NC(=O)[C@H](CCCNC(=N)N)NC(=O)[C@H](C)NC(=O)[C@H](CCC(=O)N[C@@H](CCCCN)C(N)=O)NC(=O)[C@@H](C)NC(=O)[C@H]([C@@H](C)O)NC(=O)[C@H](Cc2c[nH]c3ccccc23)NC(=O)[C@@H](CO)NC1=O [Cyclorasin 9A(Arg1A), (Ala-Arg-nal-Arg-Fpa-nle-ser-Trp-Thr-ala-Gln)-Lys] (cyclo(AR[d2Nal]R[Phe(4-F)][dNle][dS]WT[dA]E([Lys-NH2]))) | 1.3 ± 0.2 | –
CCCC[C@H]1NC(=O)[C@H](Cc2ccc(F)c(F)c2)NC(=O)[C@H](CCCNC(=N)N)NC(=O)[C@@H](Cc2ccc3ccccc3c2)NC(=O)[C@H](CCCNC(=N)N)NC(=O)[C@H](CCCNC(=N)N)NC(=O)[C@H](CCCNC(=N)N)NC(=O)[C@@H](C(C)C)NC(=O)[C@H](C(C)(C)C)NC(=O)[C@H](Cc2c[nH]c3ccccc23)NC(=O)[C@H](CCC(N)=O)NC1=O [Cyclorasin 9A54, (Trp-Tle-val-Arg-Arg-Arg-nal-Arg-Phe(3,4-difluoro)-nle-Gln)] (cyclo(W[Tle][dV]RRR[d2Nal]R[Phe(3,4-F2)][dNle]Q)) | 0.018 | –
CCCC[C@H]1NC(=O)[C@H](Cc2ccc(F)c(F)c2)NC(=O)[C@H](CCCNC(=N)N)NC(=O)[C@@H](Cc2ccc3ccccc3c2)NC(=O)[C@H](CCCNC(=N)N)NC(=O)[C@H](CCCNC(=N)N)NC(=O)[C@@H](CCCNC(=N)N)NC(=O)[C@@H](C(C)C)NC(=O)[C@H](C(C)(C)C)NC(=O)[C@H](Cc2c[nH]c3ccccc23)NC(=O)[C@H](CCC(N)=O)NC1=O [Cyclorasin 9A51, (Trp-Tle-val-arg-Arg-Arg-nal-Arg-Phe(3,4-difluoro)-nle-Gln)] (cyclo(W[Tle][dV][dR]RR[d2Nal]R[Phe(3,4-F2)][dNle]Q)) | 0.015 | –
CC(C)C[C@H]1NC(=O)[C@H](Cc2ccc(F)cc2)NC(=O)[C@H](CCCNC(=N)N)NC(=O)[C@@H](Cc2ccc3ccccc3c2)NC(=O)[C@H](CCCNC(=N)N)NC(=O)[C@H](CCCNC(=N)N)NC(=O)[C@@H](CCCNC(=N)N)NC(=O)[C@@H](C)NC(=O)[C@H]([C@@H](C)O)NC(=O)[C@H](Cc2c[nH]c3ccccc23)NC(=O)[C@H](CCC(N)=O)NC1=O [Cyclorasin 9A10, (Trp-Thr-ala-arg-Arg-Arg-nal-Arg-Fpa-leu-Gln)] (cyclo(WT[dA][dR]RR[d2Nal]R[Phe(4-F)][dL]Q)) | 0.24 ± 0.13 | –
CCCC[C@H]1NC(=O)[C@H](Cc2ccc(Cl)cc2)NC(=O)[C@H](CCCNC(=N)N)NC(=O)[C@@H](Cc2ccc3ccccc3c2)NC(=O)[C@H](CCCNC(=N)N)NC(=O)[C@H](CCCNC(=N)N)NC(=O)[C@H](CCCNC(=N)N)NC(=O)[C@@H](C)NC(=O)[C@H]([C@@H](C)O)NC(=O)[C@H](Cc2c[nH]c3ccccc23)NC(=O)[C@H](CCC(N)=O)NC1=O [Cyclorasin 9A42, (Trp-Thr-ala-Arg-Arg-Arg-nal-Arg-Phe(4-chloro)-nle-Gln)] (cyclo(WT[dA]RRR[d2Nal]R[Phe(4-Cl)][dNle]Q)) | 0.13 ± 0.02 | –
